Measurements as given in patent publication US20230218589A1, “COMPOUND FOR PREVENTION OR TREATMENT OF A SKIN CANCER OR SKIN PRECANCER” (UNIQUEST PTY LTD, priority 2020, published 2023).
Entries after “also recorded” stand apart in the source; their conditions may differ. Where two headings read alike, the source gives them in different places.

Legend:
CD8+ T cells = test: Mouse T cell proliferation assay (Cell Trace Violet, 7AAD, flow cytometry); format: cell-based; settings: 3 days
Experimental: Spleens, inguinal and brachial lymph nodes were harvested from two C57BL/6 mice in sterile conditions and placed in sterile Phosphate Buffered Saline (PBS), then cells were dissociated into a single cell suspension by gently crushing all organs through a 70 μm cell strainer. Cells were washed through the strainer into a 50 mL falcon tube with 5 mL sterile ACK lysis buffer (0.15 M NH4Cl, 1 mM KHCO3 pH 7.3). Cells were incubated for 3 min at room temperature to lyse red blood cells. 5 mL sterile PBS was added to the cell suspension and cells were centrifuged at 350 g for 10 min at room temperature. Supernatant was removed and the cell pellet resuspended in 10 mL sterile PBS. Cells were centrifuged again at 350 g for 10 min at room temperature. The supernatant was removed and the cells were resuspended in 1 mL of sterile PBS.
1 μμL of 5 mM CellTrace Violet (Thermo Fisher) was added to the cell suspension and the mixture was swirled to ensure even dispersion of the dye. Cells were incubated for 20 min in the dark at room temperature. 5 mL of pre-warmed complete RPMI medium [(RPMI 1640 (Gibco), 10% heat inactivated FBS (Gibco), 1× Penicillin/Streptomycin/L-Glutamine, 100 μM 2-Mercaptoethanol] was added to the cell suspension and incubated in the dark at room temperature for 5 min. Cells were centrifuged at 350 g for 5 min at room temperature. Supernatant was removed without disrupting the cell pellet. Cells were resuspended in 1 mL complete RPMI medium.
Cells were counted using a haemocytometer and cells were adjusted to 2×10^6 cells/mL using complete RPMI medium. 500 μL of cell suspension was added to wells in a 48-well plate (Nunc) so the final number of cells per well was 1×10^6.
A vial of Dynabeads Mouse T Activator CD3/CD28 beads (4×10^7 beads/mL) was vortexed for 30 sec and 625 μL of beads was aliquoted into a 5 mL polypropylene FACS tube (Sarstedt). 1 mL of complete RPMI medium was added to the beads and mixed by pipetting. The FACS tube was placed in a StemCell Technologies EasySep magnet for 1 minute and supernatant was discarded. The tube was removed from the magnet and washed beads were resuspended in 625 μL of complete RPMI medium. 12.5 μL of bead suspension (5×10^5 beads) was added into appropriate wells of the 48-well plate with cell suspensions to induce T cell activation.
Cells were incubated in a humidified incubator at 37° C. with 5% CO2 for 1 hour before Compound 1 (or vehicle only) was diluted in complete RPMI medium and added to the appropriate wells at the concentration required. The final volume in all wells was 1 mL. Cells were incubated for 3 days in a humidified incubator at 37° C. with 5% CO2.
Cells were harvested from each well by resuspending cells with a pipette and transferring to polypropylene FACS tubes. […]

[1] = cSCC tumour pharmacokinetics after intra-tumoural injection (LC/MS/MS); format: in vivo, mouse; settings: for concentration at 1 h / concentration at 6 h / concentration at 18 h: K14-HPV38-E6/E7, mouse, in vivo
Experimental: Tumour processing: The whole tumour was removed from the mouse. The weight of the tumour was recorded and tumour was placed into an appropriate cryovial on dry ice then transferred to a −80° C. freezer. 3 tumours per time point were assessed.
Calibration standards and quality control samples were prepared by adding 2.5 μL of stock solutions of test compound of different concentrations into 25 μL of naive mouse blood or skin homogenates. Control samples were prepared by spiking 2.5 μL of water or acetonitrile into 25 μL of naïve mouse blood or skin homogenates. Tumour samples were homogenised in 1 mL of PBS then transferred into polypropylene Eppendorf tubes. 100 μL of 0.1 M zinc sulfate was added into the tubes, vortexed for 10 sec, and 250 μL of HPLC-grade acetonitrile containing internal standard (pimecrolimus) was added, vortexed for 2 min, and centrifuged for 3 min at 800×g. 20-40 μL of the supernatant was analysed by LCMS/MS. Instrument: Acquity UPLC, Waters. Column: Acquity BEH C18 100×2.1 mm, 1.7 micron; Mobile phase A: methanol; Mobile phase B: 5 mM ammonium acetate with 0.1% formic acid; Mobile phase gradient details: T=0 min (10% A, 90% B); T=0.01 min (10% A, 90% B); gradient to T=1.5 min (95% A, 5% B); T=3.2 min (95% A, 5% B). Flow rate: 0.3 mL/min, run time: 4.5 min; Ionisation mode: Electrospray ionisation (positive).

T lymphocytes = settings: cited from earlier work

Compound | rescue of CD8+ T cell proliferation in the presence of tacrolimus (CD8+ T cells; 0.3 μM, 1 μM and 3 μM Compound 1 with 0.6 ng/mL tacrolimus) | effect on CD8+ T cell viability in the absence of tacrolimus (CD8+ T cells; Compound 1 0.3-3 μM, no tacrolimus, 7AAD) | effect on CD8+ T cell proliferation in the absence of tacrolimus (CD8+ T cells; Compound 1 0.3-3 μM, no tacrolimus) | concentration at 1 h ([1]; 1 h post final dose, SCC tumours, read-out: Average Concentration Compound 1 in tumour) [ng/g] | concentration at 6 h ([1]; 6 h post final dose, SCC tumours, read-out: Average Concentration Compound 1 in tumour) [ng/g] | concentration at 18 h ([1]; 18 h post final dose, SCC tumours, read-out: Average Concentration Compound 1 in tumour) [ng/g] | average tumour concentration of Compound 1 relative to that of tacrolimus ([1]; over 18 h) | EC50 (T lymphocytes; cultured with tacrolimus 1.2 nM, C57B1/6 mouse spleen T lymphocytes, read-out: ED50, concentration required to inhibit tritiated thymidine uptake of T cells by 50%) [µM] | CD8+ T cell proliferation compared to the vehicle control (CD8+ T cells; 0.6 ng/mL tacrolimus, CD3/CD28 beads) | concentration at 1 h [1] [ng/g] | concentration at 6 h [1] [ng/g] | concentration at 18 h [1] [ng/g] | inhibition of T cell proliferation (T lymphocytes; tacrolimus 1.2 nM) [%]
CC[C@@H]1/C=C(\C)[C@@H](O)[C@H](C)C[C@H](OC)[C@H]2O[C@@](O)(C(=O)C(=O)N3CCCC[C@H]3C(=O)O[C@H](/C(C)=C/[C@@H]3CC[C@@H](O)[C@H](OC)C3)[C@H](C)[C@@H](O)CC1=O)[C@H](C)C[C@@H]2OC [Compound 1, 17-Ethyl-1,14,20-trihydroxy-12-[2′-(4″-hydroxy-3″-methoxycyclohexyl)-1′-methylvinyl]-23,25-dimethoxy-13,19,21,27-tetramethyl-11,28-dioxa-4-azatricyclo-[22.3.1.0^4,9]octacos-18-ene-2,3,10,16-tetraone] | dose dependent rescue; also recorded: dose dependently and significantly rescued | no significant effect | no significant effect | 165000 | 148000 | 168000 | more than 2000 fold | < 50 |  |  |  |  | 
C=CC[C@@H]1/C=C(\C)C[C@H](C)C[C@H](OC)[C@H]2O[C@@](O)(C(=O)C(=O)N3CCCC[C@H]3C(=O)O[C@H](/C(C)=C/[C@@H]3CC[C@@H](O)[C@H](OC)C3)[C@H](C)[C@@H](O)CC1=O)[C@H](C)C[C@@H]2OC [tacrolimus, reference compound] |  |  |  |  |  |  |  |  | inhibited | 33 | 73 | 52 | 100
